In ChEMBL document CHEMBL1697821, “Development of a phospholipidosis database and predictive quantitative structure-activity relationship (QSAR) models” (Toxicol Mech Methods, 2008) one finds Phospholipidosis data, which are given here for 40 compounds.

The series concerns Phospholipidosis. As to the kind of experiment: Literature-mined public compounds from Kruhlak et al phospholipidosis modelling dataset.
`CCCCC[C@H](O)/C=C/[C@@H]1[C@@H](C/C=C\CCCC(=O)O)[C@@H](O)C[C@H]1O` [DINOPROST]: the Phospholipidosis result was “Negative: based on the absence of positive reported data from WMDD”.

For IVERMECTIN, the Phospholipidosis entry is on record as “Negative: based on the absence of positive reported data from WMDD”.

As to `Cc1c(C)c2c(c(C)c1O)CCC(C)(COc1ccc(CC3SC(=O)NC3=O)cc1)O2` (stereo not given) [TROGLITAZONE], the Phospholipidosis result was “Negative: based on the absence of positive reported data from WMDD”.

As to `O=NN(CCCl)C(=O)NCCCl` [CARMUSTINE], the Phospholipidosis result is “Negative: based on the absence of positive reported data from WMDD”.

For the compound `CCn1cc(C(=O)O)c(=O)c2ccc(C)nc21` [NALIDIXIC ACID], the Phospholipidosis result is recorded as “Negative: based on the absence of positive reported data from WMDD”.

On to `NS(=O)(=O)c1cc(C(=O)O)c(NCc2ccco2)cc1Cl` [FUROSEMIDE], for which the Phospholipidosis result is “Negative: confirmed by electron microscopy”.

Turning to `CC(C)(Oc1ccc(C2CC2(Cl)Cl)cc1)C(=O)O` (stereo not given) [CIPROFIBRATE], the Phospholipidosis result is “Negative: confirmed by electron microscopy”.

For `COc1cc([C@@H]2c3cc4c(cc3[C@@H](O[C@@H]3O[C@@H]5CO[C@@H](C)O[C@H]5[C@H](O)[C@H]3O)[C@H]3COC(=O)[C@H]23)OCO4)cc(OC)c1O` [ETOPOSIDE], the Phospholipidosis result is listed as “Negative: confirmed by electron microscopy”.

In the case of `CC(C)(N)Cc1ccccc1Cl` [CLORTERMINE], the Phospholipidosis result is reported as “Negative: based on the absence of positive reported data from WMDD”.

As for `NC(=O)c1ncn([C@@H]2O[C@H](CO)[C@@H](O)[C@H]2O)n1` [RIBAVIRIN], the Phospholipidosis entry is reported as “Negative: based on the absence of positive reported data from WMDD”.

Regarding `C[C@@H]1O[C@@H](O[C@@H]2C=C3CC[C@@H]4[C@H](CC[C@]5(C)[C@@H](c6ccc(=O)oc6)CC[C@]45O)[C@@]3(C)CC2)[C@H](O)[C@H](O)[C@H]1O` [PROSCILLARIDIN], the Phospholipidosis entry is “Negative: based on the absence of positive reported data from WMDD”.

Regarding `CCN(CC)CCOc1ccc2c(c1)C(=O)c1cc(OCCN(CC)CC)ccc1-2` [TILORONE], the Phospholipidosis entry was “Positive: strong inducer confirmed by electron microscopy”.

Regarding `CCOC(=O)[C@H](CCc1ccccc1)N[C@@H](C)C(=O)N1Cc2cc(OC)c(OC)cc2C[C@H]1C(=O)O` [MOEXIPRIL], the Phospholipidosis result is given as “Negative: based on the absence of positive reported data from WMDD”.

In the case of `O=C(O)c1cccnc1` [NIACIN], the Phospholipidosis entry is on record as “Negative: based on the absence of positive reported data from WMDD”.

In the case of `C[N+](C)(C)C[C@H](O)CC(=O)[O-]` [LEVOCARNITINE], the Phospholipidosis result was “Negative: based on the absence of positive reported data from WMDD”.

As to `C#CCN(C)Cc1ccccc1` [PARGYLINE], the Phospholipidosis result was “Negative: based on the absence of positive reported data from WMDD”.

As to `CNCCCC1c2ccccc2C=Cc2ccccc21` [PROTRIPTYLINE], the Phospholipidosis entry is listed as “Negative: based on the absence of positive reported data from WMDD”.

`CN(C)CCCN1c2ccccc2C(C)(C)c2ccccc21` [DIMETACRINE]: the Phospholipidosis result is on record as “Negative: based on the absence of positive reported data from WMDD”.

As to `O=C(O)[C@H]1/C(=C/CO)O[C@@H]2CC(=O)N21` [CLAVULANIC ACID], the Phospholipidosis entry is “Negative: based on the absence of positive reported data from WMDD”.

Take `Cc1ccc(C(=O)c2cc(O)c(O)c([N+](=O)[O-])c2)cc1` [TOLCAPONE]: the Phospholipidosis result is reported as “Negative: based on the absence of positive reported data from WMDD”.

Take `CC[C@H]1CN2CCc3cc(OC)c(OC)cc3[C@@H]2C[C@@H]1C[C@H]1NCCc2cc(OC)c(OC)cc21` [EMETINE]: the Phospholipidosis result was “Positive: weak inducer based on presence of foamy macrophages and cytoplasmic vacuolations”.

As to `NNc1nncc2ccccc12` [HYDRALAZINE], the Phospholipidosis entry is “Negative: based on the absence of positive reported data from WMDD”.

Regarding `CCC1NC(=O)c2cc(S(N)(=O)=O)c(Cl)cc2N1` (stereo not given) [QUINETHAZONE], the Phospholipidosis result is given as “Negative: based on the absence of positive reported data from WMDD”.

Take `O=C1CCC(N2C(=O)c3ccccc3C2=O)C(=O)N1` (stereo not given) [THALIDOMIDE]: the Phospholipidosis result was “Negative: based on the absence of positive reported data from WMDD”.

Take `CC(CN1c2ccccc2Sc2ccccc21)N(C)C` (stereo not given) [PROMETHAZINE]: the Phospholipidosis entry is “Positive: weak inducer based on presence of foamy macrophages and cytoplasmic vacuolations”.

For `CC(C)(N)Cc1ccccc1` [PHENTERMINE], the Phospholipidosis entry is “Positive: weak inducer based on presence of foamy macrophages and cytoplasmic vacuolations”.

With `CC1CC(OC(=O)C(O)c2ccccc2)CC(C)(C)C1` (stereo not given) [CYCLANDELATE], the Phospholipidosis entry is given as “Negative: based on the absence of positive reported data from WMDD”.

`O=C(O)CCC(=O)c1ccc(C2CCCCC2)c(Cl)c1` [BUCLOXIC ACID]: the Phospholipidosis result is listed as “Negative: based on the absence of positive reported data from WMDD”.

As for `NC[C@@H]1O[C@H](O[C@H]2[C@@H](O)[C@H](O[C@@H]3[C@@H](O)[C@H](N)C[C@H](N)[C@H]3O[C@H]3O[C@H](CN)[C@@H](O)[C@H](O)[C@H]3N)O[C@@H]2CO)[C@H](N)[C@@H](O)[C@@H]1O` [FRAMYCETIN], the Phospholipidosis result is reported as “Negative: based on the absence of positive reported data from WMDD”.

Consider `N[C@@H](Cc1ccc(N(CCCl)CCCl)cc1)C(=O)O`, for which the Phospholipidosis entry was “Negative: based on the absence of positive reported data from WMDD”.

Take `O=C(Oc1ccccc1C(=O)O)c1ccccc1O` [SALSALATE]: the Phospholipidosis result is “Negative: based on the absence of positive reported data from WMDD”.

Consider `CN1CCN(C2=Nc3ccccc3Oc3ccc(Cl)cc32)CC1` [LOXAPINE], for which the Phospholipidosis result is reported as “Negative: based on the absence of positive reported data from WMDD”.

Regarding `CC(=O)CC(c1ccccc1)c1c(O)c2ccccc2oc1=O` (stereo not given) [WARFARIN], the Phospholipidosis entry is recorded as “Negative: based on the absence of positive reported data from WMDD”.

In the case of `CCCCCCC(=O)OCCN1CCN(CCCN2c3ccccc3Sc3ccc(C(F)(F)F)cc32)CC1` [FLUPHENAZINE ENANTHATE], the Phospholipidosis entry was “Negative: based on the absence of positive reported data from WMDD”.

`CS(=O)(=O)c1ccc([C@H](O)[C@@H](COC(=O)CN)NC(=O)C(Cl)Cl)cc1` [THIAMPHENICOL GLYCINATE]: the Phospholipidosis entry was “Negative: based on the absence of positive reported data from WMDD”.

Consider `C[N+](C)(C)CCOC(=O)CCC(=O)OCC[N+](C)(C)C` [SUXAMETHONIUM], for which the Phospholipidosis result is listed as “Negative: based on the absence of positive reported data from WMDD”.

As for `CCOC(=O)C1N=C(c2ccccc2F)c2cc(Cl)ccc2NC1=O` (stereo not given) [ETHYL LOFLAZEPATE], the Phospholipidosis result is “Positive: strong inducer confirmed by electron microscopy”.

With `CCC(c1ccc2cc(OC)ccc2c1)C(C)(C)C(=O)O` (stereo not given), the Phospholipidosis entry is listed as “Negative: based on the absence of positive reported data from WMDD”.

As for `CC(COc1ccccc1)NC(C)C(O)c1ccc(O)cc1` (stereo not given) [ISOXSUPRINE], the Phospholipidosis entry was “Negative: based on the absence of positive reported data from WMDD”.

Turning to `O=C(N[C@H](CO)[C@H](O)c1ccc([N+](=O)[O-])cc1)C(Cl)Cl` [CHLORAMPHENICOL], the Phospholipidosis entry was “Positive: weak inducer based on presence of foamy macrophages and cytoplasmic vacuolations”.
